Reference: patent US20250381289A1, “EGFR AND C-MET BISPECIFIC BINDING AGENTS, CONJUGATES THEREOF AND METHODS OF USING THE SAME” (GENMAB A/S, priority 2024, published 2025)

Test system: EGFR and cMET co-expressed tumor cell lines (A431, A549, MDA-MB-468, MKN-45, NCI-H441, NCI-H1975)
Test: Binding activity of parent mAbs by flow cytometry
Conditions: flow cytometry on tumor cell lines, FIGS. 1A-1F, Table 5; compared with zalutumumab (zalu) or cetuximab
Method: EGFR and cMET co-expressed tumor cell lines including A431 (ATCC® CRL-1555), A549 (ATCC® CCL-185, Provided by Procell), MDA-MB-468 (ATCC® HTB-132, Provided by Procell), MKN-45 (CL-0292, Provided by Procell), NCI-H441 (ATCC® HTB-174, Provided by COBIOER), NCI-H1975 (ATCC® CRL-5908, Provided by Procell) were selected for evaluating antibody binding activity by flow cytometry.
A431 was cultured with DMEM medium (Gibco, Cat #C11995500BT) containing 10% FBS. MDA-MB-468, MKN-45, NCI-H441 and NCI-H1975 were cultured with RPMI 1640 medium (Gibco, Cat #11875093) containing 10% FBS. A549 was cultured with F12K medium (Gibco, Cat #21127030) containing 10% FBS. Each antibody was incubated with different cell lines (1×10^5 cells/well) for 30 min in 0.2 mL FACS buffer (1×PBS with 0.1% BSA) at 4° C. After wash, cells were incubated with 100 μL PE-conjugated anti human Fc (Abcam, Ab98596, 1:500 dilution) for 30 min at 4° C. After wash with PBS, cells were resuspended in FACS buffer and analyzed by flow cytometer (Beckman, CytoFLEX).

Substance	binding activity / affinity of parent EGFR mAbs (summary)
Panitumumab: parent EGFR mAb; sequences in Table 2 [reference compound]	Stronger affinity than cetuximab, binding remains
Nectitumumab: parent EGFR mAb; sequences in Table 2 as Necitumumab [reference compound]	Stronger affinity than zalu,
Nimotuzumab: parent EGFR mAb; sequences in Table 2 [reference compound]	Lower affinity than zalutumumab, no significant
